Assay results reported in paper PMC12732608, “Synthesis and Evaluation of Novel 2-((1H-1,2,4-triazol-5-yl)thio)-N-benzylidene-N-phenylacetohydrazide as Potential Antimicrobial Agents” (International Journal of Molecular Sciences, 2025).
“Also recorded” adds a separate entry of the source.

Tests used:
[1] = system: Klebsiella aerogenes ATCC 13048; test: Growth kinetics assay (OD600) against K. aerogenes; format: cell-based; conditions: 0.5 mg/mL, 6 h, K. aerogenes ATCC 13048
Protocol: (§1) Both Gram-positive and Gram-negative bacterial strains were employed in the experiment to assess antibacterial activities of the synthesized compounds. Gram-negative Klebsiella aerogenes ATCC 13048 and Gram-positive Enterococcus species MVBP-18 strains were used for the study. Bacterial strains of both were cultured in Luria–Bertani (LB) broth for optimal growth conditions. Bacterial cultures were sustained by culturing a fresh colony from newly streaked LB agar plates to 5 mL of LB medium and incubated at 37 °C with shaking at 200 rpm continuously for 16–18 h in order to achieve the logarithmic growth phase. Overnight cultures, after incubation, were standardized by dilution to an OD600 of 0.05, which contained equal bacterial inoculum for any experimental condition. These optimized cultures were employed for subsequent antibacterial tests, such as growth kinetics analysis, to determine the impact of the test compound on bacterial growth. A preliminary screening was conducted in a 96-well microplate format. Standardized bacterial cultures were treated with the compounds at a final concentration of 0.5 mg/mL. Control wells included untreated bacteria and a DMSO control. The plate was incubated at 37°C, with shaking at 200 rpm continuously, and bacterial growth was monitored by measuring the OD600 every hour for six hours using a microplate reader ( BioTek Synergy H1). The assay was performed in triplicate.

K. aerogenes = test: CFU enumeration (time-kill) against K. aerogenes; format: cell-based, Klebsiella aerogenes; conditions: for terminal viable bacterial count: terminal values (3 h time course); for effect on viable bacterial count (CFU assay), in words: within 3 h
Protocol: as §1, with “[…] Bacterial” for “A preliminary screening was conducted in a 96-well microplate format. Standardized bacterial cultures were treated with the compounds at a final concentration of 0.5 mg/mL. Control wells included untreated bacteria and a DMSO control. The plate was incubated at 37°C, with shaking at 200 rpm continuously, and bacterial”, “both” for “measuring”, “readings over 4–7 h and colony-forming unit (CFU) enumeration. For CFU counting, aliquots from the wells were serially diluted, plated on LB agar, and incubated overnight at 37 °C.” for “every hour for six hours using a microplate reader ( BioTek Synergy H1).”, “resulting colonies were counted to determine the CFU/mL. All validation experiments were also conducted” for “assay was performed”

[2] = MTT cytotoxicity assay on HEK cells; format: cell-based; conditions: human, HEK (human embryonic kidney) cells, compared to DMSO control, read-out: cell viability
Protocol: Cytotoxicity was evaluated on HEK (human embryonic kidney) cell lines using the MTT assay. […] Cells were grown in a medium that was supplemented with 10% FBS and 1% penicillin–streptomycin. This was incubated at 37 °C in a 5% CO2 atmosphere for 24 h. Cells were seeded at 1 × 10^3 cells/well in 96-well plates and allowed to adhere overnight. They were then treated with the test compounds, dissolved in DMSO, at a uniform concentration. […] The control wells contained untreated cells or cells treated with DMSO alone. After 24 h of treatment, 10 µL of the MTT solution (5 mg/mL) was added to each well and incubated for 3 h to allow formazan crystal formation. A solubilization solution (100 µL) was then added to dissolve the crystals. The absorbance at 570 nm was measured using a microplate reader. Cell viability was calculated as a percentage relative to the untreated control. All assays were performed in triplicate.

[3] = set-up: method as in earlier work; conditions: comparable to ciprofloxacin; cited from earlier work
S. aureus = system: S. aureus; set-up: method as in PMID 22906969; conditions: comparable to ampicillin; cited from earlier work
E. coli = system: E. coli; set-up: method as in PMID 22906969; conditions: comparable to ampicillin; cited from earlier work
[4] = system: Enterococcus species MVBP-18; test: Growth kinetics assay (OD600) against Enterococcus sp.; format: cell-based; conditions: 0.5 mg/mL, 6 h, Enterococcus sp. MV BP 18
Protocol: as §1, with “The assay was performed in triplicate.” left out

Enterococcus sp. = test: CFU enumeration (time-kill) against Enterococcus sp.; format: cell-based; conditions: over 3 h incubation
Protocol: as §1, with “[…] Bacterial” for “A preliminary screening was conducted in a 96-well microplate format. Standardized bacterial cultures were treated with the compounds at a final concentration of 0.5 mg/mL. Control wells included untreated bacteria and a DMSO control. The plate was incubated at 37°C, with shaking at 200 rpm continuously, and bacterial”, “both” for “measuring”, “readings over 4–7 h and colony-forming unit (CFU) enumeration. For CFU counting, aliquots from the wells were serially diluted, plated on LB agar, and incubated overnight at 37 °C.” for “every hour for six hours using a microplate reader ( BioTek Synergy H1).”, “resulting colonies were counted to determine the CFU/mL. All validation experiments were also conducted” for “assay was performed”

Row | SMILES | growth inhibition (OD600 growth kinetics) [1] | effect on viable bacterial count (CFU assay), in words (K. aerogenes) | viability at 24 h, 0.5 mg/mL [2] | other results
1 | COc1cc(/C=N/N(C(=O)CSc2nc[nH]n2)c2ccccc2)cc(OC)c1OC [Compound 4l, E-2-((1H-1,2,4-triazol-3-yl)thio)-N-phenyl-N′-(3,4,5-trimethoxybenzylidene)acetohydrazide] | mild inhibitory activities | moderate-level reduction | 55.8% | terminal viable bacterial count (K. aerogenes): 10^8–10^9 CFU/mL
2 | Cc1ccc(-n2c(SCC(=O)NC3CCCCC3)nnc2-c2ccncc2)cc1 [N-Cyclohexyl-2-[5-(4-pyridyl)-4-(p-tolyl)-4H-1,2,4-triazole-3-sulfanyl]-acetamide] |  |  |  | antibacterial activity [3]: good level of inhibition
3 | O=C(CSc1nc[nH]n1)N(/N=C/c1ccc(Br)cc1)c1ccccc1 [Compound 4e, E-2-((1H-1,2,4-triazol-3-yl)thio)-N′-(4-bromobenzylidene)-N-phenylacetohydrazide] |  |  | 87.4% | 
4 | NNC(=O)CSc1nc(N=Cc2ccc(Br)cc2)n[nH]1 [2-{3-[4-bromobenzylidene)amino]-1H-1,2,4-triazol-5-ylthio}acetohydrazide] |  |  |  | antibacterial activity (S. aureus): strong antibacterial activity; antibacterial activity (E. coli): strong antibacterial activity
5 | O=C(CSc1nc[nH]n1)N(/N=C/c1cccc(Br)c1)c1ccccc1 [Compound 4h, E-2-((1H-1,2,4-triazol-3-yl)thio)-N′-(3-bromobenzylidene)-N-phenylacetohydrazide] | mild inhibitory activities |  | 73% | 
6 | O=C(CSc1nc[nH]n1)N(/N=C/c1cccs1)c1ccccc1 [Compound 4n, E-2-((1H-1,2,4-triazol-3-yl)thio)-N-phenyl-N′-(thiophen-2-ylmethylene)acetohydrazide] | most significant growth inhibition | moderate-level reduction | 52.8% | terminal viable bacterial count (K. aerogenes): 10^8–10^9 CFU/mL
7 | O=C(CSc1nc[nH]n1)N(/N=C/c1ccccc1Cl)c1ccccc1 [Compound 4b, E-2-((1H-1,2,4-triazol-3-yl)thio)-N′-(2-chlorobenzylidene)-N-phenylacetohydrazide] | mild inhibitory activities |  | 68.7% | 
8 | O=C(CSc1nc[nH]n1)N(/N=C/c1ccccc1F)c1ccccc1 [Compound 4g, E-2-((1H-1,2,4-triazol-3-yl)thio)-N′-(2-fluorobenzylidene)-N-phenylacetohydrazide] | most significant growth inhibition; also recorded: highest degree of growth inhibition | reduced viable numbers by several orders of magnitude | 96% | growth inhibition (OD600 growth kinetics) [4]: most potent inhibitor; viable counts (K. aerogenes; at 2 h, maintained at 3 h): below 10^7 CFU/mL; viable bacterial counts (Enterococcus sp.): ~ 10^7 CFU/mL
9 | O=C(CSc1nc[nH]n1)N(/N=C/c1ccccc1)c1ccccc1 [Compound 4a, E-2-((1H-1,2,4-triazol-3-yl)thio)-N′-benzylidene-N-phenylacetohydrazide] |  |  | 72.6% | 
10 | O=C(CSc1nc[nH]n1)N(/N=C/c1c(Cl)cccc1Cl)c1ccccc1 [Compound 4j, E-2-((1H-1,2,4-triazol-3-yl)thio)-N′-(2,6-dichlorobenzylidene)-N-phenylacetohydrazide] |  |  | 71.6% | 
